Reference: patent US7915291B2, “Hepatitis C virus inhibitors” (Bristol-Myers Squibb Company, priority 2002, dated 2011)
Read-outs that look alike come from different tables or passages of the source.

Tests used:
[1] = tested on: HCV replicon in Huh7 cells; test: HCV replicon cell-based assay; design: species or system HCV strain 1B; settings: Hepatitis C virus, Huh-7; HCV replicon, Huh7 cells; read-out: EC50 range
[2] = molecular target: HCV NS3/4A protease complex, BMS strain (UniProt P27958, C1454S/C1711G, species not given/STRAIN_BMS); test: Recombinant HCV NS3/4A protease complex FRET peptide assay (BMS strain); type: biochemical, HCV genotype 1a
Procedure, shortened: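 Percent inhibition taken from the linear-range fluorescence slope relative to uninhibited control, read kinetically for about 15 min at 25° C. Enzyme (2-3 nM, BMS NS3/4A complex, lysine-tailed, Ni-NTA purified) met compound for 1 min before 2 μM FRET depsipeptide substrate started cleavage.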

[3] = NS3/4A BMS strain; read-out: IC50 range
[4] = read-out: IC50 range; NS3/4A BMS strain

| Compound | EC50 [1] | IC50 [2, 3] | IC50 [2, 4] |
| --- | --- | --- | --- |
| C=C[C@@H]1C[C@]1(NC(=O)[C@@H]1CC(Oc2nccc3cc(OC)ccc23)CN1C(=O)[C@@H](NC(=O)OC(C)(C)C)C(C)(C)O)C(=O)NS(=O)(=O)C1CC1 (stereo partly drawn) [Compound 89] | < 100 nM | < 100 nM | – |
| C=C[C@@H]1C[C@]1(NC(=O)[C@@H]1CC(Oc2nccc3cc(OC)ccc23)CN1C(=O)[C@@H](NC(=O)OC(C)(C)C)[C@@H](C)O)C(=O)NS(=O)(=O)C1CC1 (stereo partly drawn) [Compound 91] | 100 to 1000 nM | < 100 nM | – |
| C=C[C@@H]1C[C@]1(NC(=O)[C@@H]1C[C@@H](Oc2nccc3cc(OC)ccc23)CN1C(=O)[C@@H](NC(=O)OC(C)(C)C)[C@@H](C)OC)C(=O)NS(=O)(=O)C1CC1 [Compound 92] | < 100 nM | < 100 nM | – |
| C=C[C@@H]1C[C@]1(NC(=O)[C@@H]1C[C@@H](Oc2nccc3cc(OC)ccc23)CN1C(=O)[C@@H](NC(=O)OC(C)(C)C)[C@@H](C)OC(C)(C)C)C(=O)NS(=O)(=O)C1CC1 [Compound 93] | 100 to 1000 nM | 100 to 1000 nM | – |
| C=C[C@@H]1C[C@]1(NC(=O)[C@@H]1C[C@@H](Oc2nccc3cc(OC)ccc23)CN1C(=O)[C@@H](NC(=O)OC(C)(C)C)[C@H](C)OC)C(=O)NS(=O)(=O)C1CC1 [Compound 94] | < 100 nM | < 100 nM | – |
| C=C[C@@H]1C[C@]1(NC(=O)[C@@H]1C[C@@H](Oc2nccc3cc(OC)ccc23)CN1C(=O)[C@@H](NC(=O)OC(C)(C)C)[C@H](C)O)C(=O)NS(=O)(=O)C1CC1 [Compound 95] | 100 to 1000 nM | < 100 nM | – |
| C=C[C@@H]1C[C@]1(NC(=O)[C@@H]1C[C@@H](Oc2nccc3cc(OC)ccc23)CN1C(=O)[C@@H](NC(=O)OC(C)(C)C)[C@H](C)OCC)C(=O)NS(=O)(=O)C1CC1 [Compound 96] | < 100 nM | – | < 100 nM |
| C=C[C@@H]1C[C@]1(NC(=O)[C@@H]1C[C@@H](Oc2nccc3cc(OC)ccc23)CN1C(=O)[C@@H](NC(=O)OC(C)(C)C)[C@H](C)OC(C)(C)C)C(=O)NS(=O)(=O)C1CC1 [Compound 97] | < 100 nM | < 100 nM | – |
| C=C[C@@H]1C[C@]1(NC(=O)[C@@H]1C[C@@H](Oc2nccc3cc(OC)ccc23)CN1C(=O)[C@@H](N)[C@H](C)OC)C(=O)NS(=O)(=O)C1CC1 [Compound 100] | 1000 to 10000 nM | – | 100 to 1000 nM |
| C=C[C@@H]1C[C@]1(NC(=O)[C@@H]1C[C@@H](Oc2nccc3cc(OC)ccc23)CN1C(=O)[C@@H](NC(=O)NC(C)(C)C)[C@H](C)OC)C(=O)NS(=O)(=O)C1CC1 [Compound 101] | < 100 nM | – | < 100 nM |
| C=C[C@@H]1C[C@]1(NC(=O)[C@@H]1C[C@@H](Oc2nccc3cc(OC)ccc23)CN1C(=O)[C@@H](NC(=O)NC(C)(C)CC)[C@H](C)OC)C(=O)NS(=O)(=O)C1CC1 [Compound 102] | < 100 nM | < 100 nM | – |
| C=C[C@@H]1C[C@]1(NC(=O)[C@@H]1C[C@@H](Oc2nccc3cc(OC)ccc23)CN1C(=O)[C@@H](NC(=O)NC1CCCC1)[C@H](C)OC)C(=O)NS(=O)(=O)C1CC1 [Compound 103] | < 100 nM | < 100 nM | – |
| C=C[C@@H]1C[C@]1(NC(=O)[C@@H]1C[C@@H](Oc2nccc3cc(OC)ccc23)CN1C(=O)[C@@H](NC(=O)OC1CCCC1)[C@H](C)OC)C(=O)NS(=O)(=O)C1CC1 [Compound 104] | < 100 nM | – | < 100 nM |
| C=C[C@@H]1C[C@]1(NC(=O)[C@@H]1C[C@@H](Oc2nccc3cc(OC)ccc23)CN1C(=O)[C@@H](NC(=O)OC(C)(C)CC)[C@H](C)OC)C(=O)NS(=O)(=O)C1CC1 [Compound 105] | < 100 nM | – | < 100 nM |
| C=C[C@@H]1C[C@]1(NC(=O)[C@@H]1C[C@@H](Oc2nccc3cc(OC)ccc23)CN1C(=O)[C@@H](NC(=O)OC(C)(C)C(F)(F)F)[C@H](C)OC)C(=O)NS(=O)(=O)C1CC1 [Compound 106] | < 100 nM | < 100 nM | – |
| C=C[C@@H]1C[C@]1(NC(=O)[C@@H]1CC(Oc2nc(-c3ccccc3)cc3ccccc23)CN1C(=O)[C@@H](NC(=O)OC(C)(C)C)[C@H](C)O)C(=O)NS(=O)(=O)C1CC1 (stereo partly drawn) [Compound 107] | 100 to 1000 nM | – | < 100 nM |
| C=C[C@@H]1C[C@]1(NC(=O)[C@@H]1CC(Oc2nc(-c3ccccc3)cc3ccccc23)CN1C(=O)[C@@H](NC(=O)OC(C)(C)C)[C@H](C)OC)C(=O)NS(=O)(=O)C1CC1 (stereo partly drawn) [Compound 108] | < 100 nM | < 100 nM | – |
| C=C[C@@H]1C[C@]1(NC(=O)[C@@H]1CC(Oc2nc(-c3ccccc3)cc3ccccc23)CN1C(=O)[C@@H](NC(=O)OC(C)(C)C)[C@H](C)OCC)C(=O)NS(=O)(=O)C1CC1 (stereo partly drawn) [Compound 109] | < 100 nM | < 100 nM | – |
| C=C[C@@H]1C[C@]1(NC(=O)[C@@H]1C[C@@H](Oc2nccc3cc(OC)ccc23)CN1C(=O)[C@@H](NC(=O)OC(C)(C)C)[C@@H](C)OCc1ccccc1)C(=O)NS(=O)(=O)C1CC1 [Compound 110] | 100 to 1000 nM | < 100 nM | – |
| C=C[C@@H]1C[C@]1(NC(=O)[C@@H]1C[C@@H](Oc2nccc3ccccc23)CN1C(=O)[C@@H](NC(=O)Oc1ccc(C)cc1)C(C)(C)C)C(=O)NS(=O)(=O)C1CC1 [Compound 120] | 100 to 1000 nM | < 100 nM | – |

| Compound | EC50 [1] | IC50 [2, 3] | IC50 [2, 4] |
| --- | --- | --- | --- |
| C=C[C@@H]1C[C@]1(NC(=O)[C@@H]1C[C@@H](Oc2nccc3ccccc23)CN1C(=O)[C@@H](NC(=O)Oc1ccccc1)C(C)(C)C)C(=O)NS(=O)(=O)C1CC1 [Compound 121] | 100 to 1000 nM | < 100 nM | – |
| C=C[C@@H]1C[C@]1(NC(=O)[C@@H]1C[C@@H](Oc2nccc3ccccc23)CN1C(=O)[C@@H](NC(=O)Oc1ccc(F)cc1)C(C)(C)C)C(=O)NS(=O)(=O)C1CC1 [Compound 122] | 100 to 1000 nM | < 100 nM | – |
| C=C[C@@H]1C[C@]1(NC(=O)[C@@H]1C[C@@H](Oc2nccc3ccccc23)CN1C(=O)[C@@H](NC(=O)Oc1ccc(OC)cc1)C(C)(C)C)C(=O)NS(=O)(=O)C1CC1 [Compound 123] | 100 to 1000 nM | < 100 nM | – |
| C=C[C@@H]1C[C@]1(NC(=O)[C@@H]1C[C@@H](Oc2nccc3ccccc23)CN1C(=O)[C@@H](NC(=O)OCCOC)C(C)(C)C)C(=O)NS(=O)(=O)C1CC1 [Compound 124] | 1000 to 10000 nM | 100 to 1000 nM | – |
| C=C[C@@H]1C[C@]1(NC(=O)[C@@H]1C[C@@H](Oc2nccc3ccccc23)CN1C(=O)[C@@H](NC(=O)OCC(C)(C)C)C(C)(C)C)C(=O)NS(=O)(=O)C1CC1 [Compound 125] | < 100 nM | < 100 nM | – |
| C=C[C@@H]1C[C@]1(NC(=O)[C@@H]1C[C@@H](Oc2nccc3ccccc23)CN1C(=O)[C@@H](NC(=O)OCCF)C(C)(C)C)C(=O)NS(=O)(=O)C1CC1 [Compound 126] | 100 to 1000 nM | < 100 nM | – |
| C=C[C@@H]1C[C@]1(NC(=O)[C@@H]1C[C@@H](Oc2nccc3ccccc23)CN1C(=O)[C@@H](NC(=O)Oc1ccccc1OC)C(C)(C)C)C(=O)NS(=O)(=O)C1CC1 [Compound 127] | 100 to 1000 nM | < 100 nM | – |
| C=C[C@@H]1C[C@]1(NC(=O)[C@@H]1C[C@@H](Oc2nccc3ccccc23)CN1C(=O)[C@@H](NC(=O)O[C@@H]1C[C@H](C)CC[C@H]1C(C)C)C(C)(C)C)C(=O)NS(=O)(=O)C1CC1 [Compound 128] | 100 to 1000 nM | < 100 nM | – |
| C=C[C@@H]1C[C@]1(NC(=O)[C@@H]1C[C@@H](Oc2nccc3ccccc23)CN1C(=O)[C@@H](NC(=O)OCCCCCC)C(C)(C)C)C(=O)NS(=O)(=O)C1CC1 [Compound 129] | 100 to 1000 nM | 100 to 1000 nM | – |
| C=C[C@@H]1C[C@]1(NC(=O)[C@@H]1C[C@@H](Oc2nccc3ccccc23)CN1C(=O)[C@@H](NC(=O)CC(C)(C)C)C(C)(C)C)C(=O)NS(=O)(=O)C1CC1 [Compound 130] | 100 to 1000 nM | < 100 nM | – |
| C=C[C@@H]1C[C@]1(NC(=O)[C@@H]1C[C@@H](Oc2nccc3ccccc23)CN1C(=O)[C@@H](NC(=O)COC)C(C)(C)C)C(=O)NS(=O)(=O)C1CC1 [Compound 131] | 1000 to 10000 nM | 100 to 1000 nM | – |
| C=C[C@@H]1C[C@]1(NC(=O)[C@@H]1C[C@@H](Oc2nccc3ccccc23)CN1C(=O)[C@@H](NC(=O)CCOC)C(C)(C)C)C(=O)NS(=O)(=O)C1CC1 [Compound 132] | 1000 to 10000 nM | < 100 nM | – |
| C=C[C@@H]1C[C@]1(NC(=O)[C@@H]1C[C@@H](Oc2nccc3ccccc23)CN1C(=O)[C@@H](NC(=O)[C@@H]1COc2ccccc2O1)C(C)(C)C)C(=O)NS(=O)(=O)C1CC1 [Compound 133] | 1000 to 10000 nM | 100 to 1000 nM | – |
| C=C[C@@H]1C[C@]1(NC(=O)[C@@H]1C[C@@H](Oc2nccc3cc(OC)ccc23)CN1C(=O)[C@@H](NC(=O)OC(C)(C)C)c1ccccc1)C(=O)NS(=O)(=O)C1CC1 [Compound 134] | 100 to 1000 nM | < 100 nM | – |
| C=C[C@@H]1C[C@]1(NC(=O)[C@@H]1C[C@@H](Oc2nccc3cc(OC)ccc23)CN1C(=O)[C@H](CC(=O)OCc1ccccc1)NC(=O)OC(C)(C)C)C(=O)NS(=O)(=O)C1CC1 [Compound 137] | < 100 nM | < 100 nM | – |
| C=C[C@@H]1C[C@]1(NC(=O)[C@@H]1C[C@@H](Oc2nccc3cc(OC)ccc23)CN1C(=O)[C@H](CC(=O)OC)NC(=O)OC(C)(C)C)C(=O)NS(=O)(=O)C1CC1 [Compound 138] | < 100 nM | < 100 nM | – |
| C=C[C@@H]1C[C@]1(NC(=O)[C@@H]1C[C@@H](Oc2nccc3cc(OC)ccc23)CN1C(=O)[C@H](CC(=O)OC(C)(C)C)NC(=O)OC(C)(C)C)C(=O)NS(=O)(=O)C1CC1 [Compound 139] | 100 to 1000 nM | < 100 nM | – |
| C=C[C@@H]1C[C@]1(NC(=O)[C@@H]1C[C@@H](Oc2nccc3cc(OC)ccc23)CN1C(=O)[C@H](CC(=O)O)NC(=O)OC(C)(C)C)C(=O)NS(=O)(=O)C1CC1 [Compound 140] | 1000 to 10000 nM | < 100 nM | – |
| C=C[C@@H]1C[C@]1(NC(=O)[C@@H]1C[C@@H](Oc2nccc3cc(OC)ccc23)CN1C(=O)C(NC(=O)N[C@H](C(=O)OC)C(C)C)C(C)(C)C)C(=O)NS(=O)(=O)C1CC1 (stereo partly drawn) [Compound 141] | < 100 nM | < 100 nM | – |
